# Assay results published in patent publication US20200009168A1, “MICROBIOME REGULATORS AND RELATED USES THEREOF” (KALEIDO BIOSCIENCES, INC., priority 2015, published 2020).
# What was measured:
# [1] = tested on: colonic regulatory T cells; settings: in mice or in vitro; cited from earlier work
# [2] = studies by McCance et al (J Biol Chem (1930) 24:795-804); cited from earlier work
# [3] = tested on: Bacteroides cellulosilyticus DSM 14838 "BCE.71"; experiment: Sugar-supported growth of commensal bacteria, BCE.71; format: cell-based; settings: 0.5% w/v sugar, 37° C., 18-24 hours, anaerobic; OD600 divided by OD600 with 0.5% w/v dextrose
# Method: (§1) An in vitro assay was performed to assess the ability of various bacterial strains, including commensals of the gastrointestinal tract, to utilize different sugars as growth substrates. This assay was designed to assess the ability of selected natural monosaccharides, disaccharides and synthetic sugars to promote the growth of microbiota associated with a healthy state. Bacterial strains were handled at all steps in an anaerobic chamber (AS-580, Anaerobe Systems) featuring a palladium catalyst. The chamber was initially made anaerobic by purging with an anaerobic gas mixture of 5% hydrogen, 5% carbon dioxide and 90% nitrogen and subsequently maintained in an anaerobic state using this same anaerobic gas mixture. Anaerobicity of the chamber was confirmed daily using Oxoid anaerobic indicator strips that change color in the presence of oxygen. All culture media, assay plates, other reagents and plastic consumables were pre-reduced in the anaerobic chamber for 24-48 hours prior to contact with bacteria. Sugars were prepared at 5% w/v in water, filter-sterilized and added to Costar 3370 assay plates for a final concentration of 0.5% w/v in the assay, with each microbiome regulator assayed in two non-adjacent wells and dextrose and water supplied as positive and negative controls.
# (§2) Bacterial isolates were obtained from the American Type Culture Collection (ATCC) and Leibniz Institute DSMZ-German Institute of Microorganisms and Cell Cultures (DSMZ). Cultures of the Bacteroidetes Bacteroides caccae ATCC 43185 “BCA.26”, Bacteroides thetaiotaomicron ATCC 29741 “BTH.8”, Bacteroides cellulosilyticus DSM 14838 “BCE.71”, Parabacteroides distasonis ATCC 8503 “PDI.6” and Prevotella copri DSM 18205 “PCO.72”; the Clostridiales Clostridium scindens ATCC 35704 “CSC.32”, Dorea formicigenerans ATCC 27755 “DFO.36” and Ruminococcus obeum ATCC 29714 “ROB.74”; and the Bifidobacteria Bifidobacterium longum ATCC 15707 “BLO.16” and Bifidobacterium longum DSM 20088 “BLO.83”, were grown anaerobically in Chopped Meat Glucose broth (CMG, Anaerobe Systems), a pre-reduced enriched medium including lean ground beef, enzymatic digest of casein, yeast extract, potassium phosphate, dextrose, cysteine, hemin and Vitamin K1, for 18-48 hours at 37° C. Inocula were prepared by determining the optical density of each culture at […] (OD600) in a Costar 3370 polystyrene 96-well flat-bottom assay plate using a Biotek Synergy 2 plate reader with Gen5 2.0 All-In-One Microplate Reader Software according to manufacturer's protocol, and diluting the cells to OD600 0.01 final in defined and semi-defined media that were prepared without sugars. D. formicigenerans, P. distasonis and B. longum isolates were tested in 900 mg/L sodium chloride, 26 mg/L calcium chloride dihydrate, 20 mg/L magnesium chloride hexahydrate, 10 mg/L manganese chloride tetrahydrate, 40 mg/L ammonium sulfate, 4 mg/L iron sulfate heptahydrate, 1 mg/L cobalt chloride hexahydrate, 300 mg/L potassium phosphate dibasic, 1.5 g/L sodium phosphate dibasic, 5 g/L sodium bicarbonate, 0.125 mg/L biotin, 1 mg/L pyridoxine, […], 75 mg/L histidine, 75 mg/L glycine, 75 mg/L tryptophan, 150 mg/L arginine, 150 mg/L methionine, 150 mg/L threonine, 225 mg/L valine, 225 mg/L isoleucine, 300 mg/L leucine, 400 mg/L cysteine, and 450 mg/L proline (Theriot C M et al. Nat Commun. 2014; 5:3114), supplemented with 0-3.5% (v/v) CMG. B. thetaiotaomicron, B. caccae and B. cellulosyliticus were tested in 100 mM potassium phosphate buffer (pH 7.2), 15 mM sodium chloride, 8.5 mM ammonium sulfate, 4 mM L-cysteine, 1.9 μM hematin, 200 μM L-histidine, 100 μM magnesium chloride, 1.4 μM iron sulfate heptahydrate, 50 μM calcium chloride, 1 μg/mL vitamin K3 and 5 ng/mL vitamin B12 (Martens E C et al. Cell Host & Microbe 2008; 4, 447-457). […]
# panel of 10 commensals = experiment: Sugar-supported growth, whole panel of 10 commensals; format: cell-based; settings: 0.5% w/v sugar, summary in words
# Method: as §1, §2
# [4] = tested on: Clostridium scindens ATCC 35704 "CSC.32"; experiment: Sugar-supported growth of commensal bacteria, CSC.32; format: cell-based; settings: 0.5% w/v sugar, 37° C., 18-24 hours, anaerobic; OD600 divided by OD600 with 0.5% w/v dextrose
# Method: as §1, §2
# [5] = tested on: Ruminococcus obeum ATCC 29714 "ROB.74"; experiment: Sugar-supported growth of commensal bacteria, ROB.74; format: cell-based; settings: 0.5% w/v sugar, 37° C., 18-24 hours, anaerobic; OD600 divided by OD600 with 0.5% w/v dextrose
# Method: as §1, §2
# [6] = tested on: Bacteroides thetaiotaomicron ATCC 29741 "BTH.8"; experiment: Sugar-supported growth of commensal bacteria, BTH.8; format: cell-based; settings: 0.5% w/v sugar, 37° C., 18-24 hours, anaerobic; OD600 divided by OD600 with 0.5% w/v dextrose
# Method: as §1, §2
# [7] = tested on: Bifidobacterium longum ATCC 15707 "BLO.16"; experiment: Sugar-supported growth of commensal bacteria, BLO.16; format: cell-based; settings: 0.5% w/v sugar, 37° C., 18-24 hours, anaerobic; OD600 divided by OD600 with 0.5% w/v dextrose
# Method: as §1, §2
# [8] = tested on: Parabacteroides distasonis ATCC 8503 "PDI.6"; experiment: Sugar-supported growth of commensal bacteria, PDI.6; format: cell-based; settings: 0.5% w/v sugar, 37° C., 18-24 hours, anaerobic; OD600 divided by OD600 with 0.5% w/v dextrose
# Method: as §1, §2
# [9] = tested on: Bacteroides caccae ATCC 43185 "BCA.26"; experiment: Sugar-supported growth of commensal bacteria, BCA.26; format: cell-based; settings: 0.5% w/v sugar, 37° C., 18-24 hours, anaerobic; OD600 divided by OD600 with 0.5% w/v dextrose
# Method: as §1, §2
# [10] = tested on: Dorea formicigenerans ATCC 27755 "DFO.36"; experiment: Sugar-supported growth of commensal bacteria, DFO.36; format: cell-based; settings: 0.5% w/v sugar, 37° C., 18-24 hours, anaerobic; OD600 divided by OD600 with 0.5% w/v dextrose
# Method: as §1, §2
# [11] = tested on: Prevotella copri DSM 18205 "PCO.72"; experiment: Sugar-supported growth of commensal bacteria, PCO.72; format: cell-based; settings: 0.5% w/v sugar, 37° C., 18-24 hours, anaerobic; OD600 divided by OD600 with 0.5% w/v dextrose
# Method: as §1, §2
# [12] = tested on: Bifidobacterium longum DSM 20088 "BLO.83"; experiment: Sugar-supported growth of commensal bacteria, BLO.83; format: cell-based; settings: 0.5% w/v sugar, 37° C., 18-24 hours, anaerobic; OD600 divided by OD600 with 0.5% w/v dextrose
# Method: as §1
# Bacterial isolates were obtained from the American Type Culture Collection (ATCC) and Leibniz Institute DSMZ-German Institute of Microorganisms and Cell Cultures (DSMZ). Cultures of the Bacteroidetes Bacteroides caccae ATCC 43185 “BCA.26”, Bacteroides thetaiotaomicron ATCC 29741 “BTH.8”, Bacteroides cellulosilyticus DSM 14838 “BCE.71”, Parabacteroides distasonis ATCC 8503 “PDI.6” and Prevotella copri DSM 18205 “PCO.72”; the Clostridiales Clostridium scindens ATCC 35704 “CSC.32”, Dorea formicigenerans ATCC 27755 “DFO.36” and Ruminococcus obeum ATCC 29714 “ROB.74”; and the Bifidobacteria Bifidobacterium longum ATCC 15707 “BLO.16” and Bifidobacterium longum DSM 20088 “BLO.83”, were grown anaerobically in Chopped Meat Glucose broth (CMG, Anaerobe Systems), a pre-reduced enriched medium including lean ground beef, enzymatic digest of casein, yeast extract, potassium phosphate, dextrose, cysteine, hemin and Vitamin K1, for 18-48 hours at 37° C. Inocula were prepared by determining the optical density of each culture at […] (OD600) in a Costar 3370 polystyrene 96-well flat-bottom assay plate using a Biotek Synergy 2 plate reader with Gen5 2.0 All-In-One Microplate Reader Software according to manufacturer's protocol, and diluting the cells to OD600 0.01 final in defined and semi-defined media that were prepared without sugars. […]
SMILES,"expression of Foxp3, a T cell regulatory factor [1]","expression of IL-10, an anti-inflammatory cytokine [1]",absorption by the gastrointestinal tract [2],"Average Normalized Growth (NGV), BCE.71 [3]",taxa or strains of the commensal panel whose growth was supported (panel of 10 commensals),"Average Normalized Growth (NGV), CSC.32 [4]","Average Normalized Growth (NGV), ROB.74 [5]","Average Normalized Growth (NGV), BTH.8 [6]","Average Normalized Growth (NGV), BLO.16 [7]","Average Normalized Growth (NGV), PDI.6 [8]","Average Normalized Growth (NGV), BCA.26 [9]","Average Normalized Growth (NGV), DFO.36 [10]","Average Normalized Growth (NGV), PCO.72 [11]","Average Normalized Growth (NGV), BLO.83 [12]"
"CCC(=O)O [propionate, propionic acid]",increased,increased,,,,,,,,,,,,
O=C[C@@H](O)[C@H](O)[C@H](O)CO [arabinose],,,are not,,,,,,,,,,,
OC[C@H]1O[C@@H](O[C@H]2[C@H](O)[C@@H](O)C(O)O[C@@H]2CO)[C@H](O)[C@@H](O)[C@H]1O (stereo partly drawn) [lactose],,,,+++ (>1),"supported some commensals from the taxa Bacteroidetes, Firmicutes, including Lachnospiraceae, and Bifidobacteria",+++ (>1),++ (0.6-1),+++ (>1),++ (0.6-1),+++ (>1),+++ (>1),+++ (>1),+++ (>1),+++ (>1)
O=C(CO)[C@@H](O)[C@H](O)[C@H](O)CO [D-fructose],,,,+++ (>1),"supported some commensals from the taxa Bacteroidetes, Firmicutes, including Lachnospiraceae, and Bifidobacteria",+++ (>1),++ (0.6-1),++ (0.6-1),+++ (>1),+++ (>1),++ (0.6-1),+++ (>1),++ (0.6-1),+++ (>1)
O=C[C@H](O)[C@@H](O)[C@@H](O)[C@H](O)CO [D-galactose],,,readily absorbed,+++ (>1),"supported some commensals from the taxa Bacteroidetes, Firmicutes, including Lachnospiraceae, and Bifidobacteria",++ (0.6-1),+ (0.2-0.6),+++ (>1),− (<0.2),+++ (>1),++ (0.6-1),+ (0.2-0.6),+++ (>1),+++ (>1)
C[C@H](O)[C@H](O)[C@@H](O)[C@@H](O)C=O [L-rhamnose],,,are not,,,− (<0.2),,+ (0.2-0.6),− (<0.2),− (<0.2),− (<0.2),− (<0.2),+ (0.2-0.6),
